Assays:
CMV strain PFA^r D100 = experiment: plaque reduction assay, foscarnet-resistant strain PFA^r D100; type: cell-based, human CMV; conditions: Human betaherpesvirus 5, MRC5
Method: (§1) The anti-CMV activity of peptide AV-9 was evaluated against two ganciclovir-resistant and two foscarnet-resistant laboratory strains of human CMV in the continuous, human embryonic lung cell line MRC-5.
(§2) To perform the studies, peptide AV-9 was dissolved as a solid in sterile, deionized water to a final stock concentration of 10 mM. This stock solution was subsequently diluted in cell culture medium to obtain the test concentrations used in the study. Ganciclovir (GCV) was dissolved in sterile, deionized water, and the drug concentration measured spectrophotometrically (7.8mM). Foscarnet (phosphonoformic acid, PFA) was dissolved in sterile, deionized water to a final concentration of 100 mM. Aliquots of the stock solutions were stored at -70° C.
(§3) Drug-resistant human CMV strains 759^r D100, GDG^r K17, PFA^r D100 and PFA^r B300 were obtained from Dr. Donald M. Coen, Harvard Medical School, Boston, Mass. […]
(§4) Anti-CMV activity of peptide AV-9, ganciclovir (GCV) and foscarnet (PFA) was assessed by standard plaque reduction assay using 24-well microtiter plates. […]
(§5) MRC-5 cells (4-5×10^5 per well) were grown for 24 hours at 37° C. in 5% CO2 atmosphere in D-MEM/F-12FBS medium containing varying concentrations of drug. […] Vital plaques were counted under a microscope after removing the culture medium from the wells, staining the cells with 1.1% Crystal Violet solution, and washing twice with tap water. […]

CMV strain AD-169 [1] = experiment: plaque reduction assay, CMV AD-169 in MRC-5 cells; type: cell-based, human CMV; conditions: Human betaherpesvirus 5, AD169, MRC5, CMV AD-169, MRC-5 (human embryonic lung), 24 h drug pretreatment
Method: (§6) The following procedures were then used to determine inhibitory effects of AV-9 on the replication of CMV. […] This was accomplished by diluting the stock peptide solution in growth medium (10% fetal bovine serum and 10 μg/ml gentamicin in Dulbecco's MEM (DMEM)) used to overlay the monolayers.
(§7) After pretreatment with AV-9, the monolayers were overlaid with 0.1 ml log10 dilutions of virus (CMV strain AD-169) ranging from 10^-1 to 10^-6. Virus was then allowed to adsorb for 1 hour at 37° C. The virus inoculum was removed and the monolayers were overlayed with DMEM containing 2% FBS, 10 ug/ml gentamicin and a specified concentration of AV-9. Virus was next allowed to replicate for 7 to 10 days until the plaques were judged to be well developed, and then the monolayers were fixed and stained with a solution of 1% crystal violet in 1% formaldehyde,70% ethanol. Finally, plaques (each representing a single viable virion) were counted and checked microscopically.
(§8) In a like manner, plaque reduction assays were also performed against other CMV strains and another CMV host, with comparison against ganciclovir (GCV) and foscarnet (FCV).

CMV strain PFA^r B300 = experiment: plaque reduction assay, foscarnet-resistant strain PFA^r B300; type: cell-based, human CMV; conditions: Human betaherpesvirus 5, MRC5
Method: as §1, §2, §3, §4, §5

[2] = toxicity control mice, immunosuppressed, uninfected
Method: The mice were immunosuppressed by intraperitoneal (i.p.) injection with 100 mg/kg/day of cyclophosphamide administered on days -1, +3, +6, +10, +14 and +18 relative to virus inoculation. […] In a second portion of the study, the compound was administered i.p. in a dose of 0.1 mg/kg/day once daily from day -2 through +10. Ganciclovir in a dose of 50 mg/kg/day was injected i.p. once daily for 10 days beginning 24 hr post-virus exposure (days +1→+10). A total of 15 infected mice/dose were used. […] Five toxicity control mice were used at each dose; these mice were treated in parallel with the infected mice, and were weighed on the initial day of treatment and again 24 after the final treatment. […] Normal controls were weighed and held in parallel with the toxicity controls.

CMV strain 759^r D100 = experiment: plaque reduction assay, ganciclovir-resistant strain 759^r D100; type: cell-based, human CMV; conditions: Human betaherpesvirus 5, MRC5
Method: as §1, §2, §3, §4, §5

CMV strain AD-169 [3] = experiment: plaque reduction assay, CMV AD-169 in HFF cells; type: cell-based, human CMV; conditions: Human betaherpesvirus 5, AD169, CMV AD-169, HFF
Method: as §6
as §7, with “After pretreatment with AV-9, the monolayers were overlaid with 0.1 ml log10 dilutions of virus (CMV strain AD-169) ranging from 10^-1 to 10^-6.” left out
as §8

CMV strain GDG^r K17 = experiment: plaque reduction assay, ganciclovir-resistant strain GDG^r K17; type: cell-based, human CMV; conditions: Human betaherpesvirus 5, MRC5
Method: as §1, §2, §3, §4, §5

[4] = test system: Smith strain of murine CMV; experiment: murine CMV infection in cyclophosphamide-immunosuppressed mice; type: in vivo, BALB/c mice
Text: This immunosuppression model mimics the human patient situation, wherein the HCMV-induced disease in immunosuppressed individuals can often be fatal. The particular model used for evaluating potential antiviral activity has been described by Smee et al in J. Infect. Dis., 1991, 164: 958.
The Smith strain of murine CMV, obtained originally from the American Type Culture Collection (Rockville, Md.) was used. A mouse salivary gland preparation was used for the virus pool. An inoculation of 2×10^4 plaque forming units of the virus was used in the antiviral study. Female BALB/c mice weighing 10-12 g were quarantined 24 hr prior to use, and maintained on Wayne Lab Blox and tap water ad libitum the duration of the study.
Ganciclovir (DHPG) was purchased from a commercial source, and cyclophosphamide was purchased from Sigma Chemical Co. (St. Louis, Mo.).
To determine tissue virus titre, homogenates of infected mouse organs were titrated for virus using C127/I cells in 96-well microplates. Each tissue sample was homogenized and titrated separately with 3 micro wells used per dilution; plates were read by microscopic examination for viral-induced cytopathic effect, with 50% end points determined by the Reed-Muench method. Mean viral titers were expressed at 50% cell culture infectious doses (CCID50)/gram of tissue.
For statistical evaluation, increases in mean day to death and reductions in viral titers were assessed using the two-tailed Mann-Whitney U test. Total survivor increases were evaluated by chi square analysis with Yates'.

CMV strain AD-169 [5] = experiment: CPE assay, CMV AD-169 in HFF cells; type: cell-based; conditions: Human betaherpesvirus 5, AD169, CMV AD-169, HFF (human foreskin fibroblast), without 24 h drug pretreatment
Text: *CPE assay, all others are plaque reduction assays.

[6] = 50 mg/kg/day i.p. days +1 to +10, 9 days after virus challenge

Compound | IC50 (CMV strain PFA^r D100) [µM] | IC50 (CMV strain AD-169 [1]) [µM] | IC50 (CMV strain PFA^r B300) [µM] | Mean Body Weight Change ([2]; 50 mg/kg/day i.p. days +1 to +10, start of treatment to 24 hr after final treatment) [g] | Surv/Total ([2]; toxicity controls, 50 mg/kg/day i.p., days +1 through +10) | IC50 (CMV strain 759^r D100) [µM] | IC50 (CMV strain AD-169 [3]) [µM] | IC50 (CMV strain GDG^r K17) [µM] | days after initiation of infection until first deaths ([4]; 50 mg/kg/day i.p. days +1 to +10) [days] | Tissue Virus Titer ± S.D., Lung [4, 6] [log10 CCID50/g] | Tissue Virus Titer ± S.D., Salivary Gland [4, 6] [log10 CCID50/g] | Tissue Virus Titer ± S.D., Spleen [4, 6] [log10 CCID50/g] | Surv/Total ([4]; infected mice, 50 mg/kg/day i.p., days +1 through +10) | Mean Day to Death ± S.D. ([4]; infected mice, 50 mg/kg/day i.p., days +1 through +10, P<0.01 vs saline) [days] | IC50 (CMV strain AD-169 [5]) [µM]
O=C(O)P(=O)(O)O [FCV, phosphonoformic acid] | 234 | 96 | 385 |  |  |  |  |  |  |  |  |  |  |  | 
Nc1nc2c(ncn2COC(CO)CO)c(=O)[nH]1 [GCV, 9-[(1,3-dihydroxy-2-propoxy)methyl]guanine, reference compound] |  |  |  | 4.2 | 5/5 | 30.5 | 2 | 6.1 | ≥ 21 | 0 ± 0.0 | 3.5 ± 0.9 | 0.5 ± 1.2 | 0/10 | 22.9 ± 1.1 | 5.8
